Measured values reported in patent publication US4444786A, “Carbamate derivatives, insecticidal, miticidal or nematocidal compositions containing the same, and process for preparing the same” (priority 1981, dated 1984).

How the values were obtained:
[1] = test system: green rice leafhopper (Nephotettix cincticeps); assay: Test Example 2: mortality of female adults of green rice leafhopper on paddy rice, three days; assay type: in vivo; conditions: 72 h, 3 days; for mortality at 200 ppm: 200 ppm active ingredient; for mortality at 400 ppm: 400 ppm active ingredient; for mortality at 800 ppm: 800 ppm active ingredient
Experimental: An emulsion of specified concentration was prepared from a 50% wettable powder of the compound to be tested and applied to the leaves of paddy rice (one-month-old seedlings) planted in a pot to fully wet the leaves. After air-drying the emulsion, the pot was covered with a net cage, into which 10 female adults of green rice leafhopper (Nephotettix cincticeps) were released. The compound of each specified concentration was tested on two pots.

warm-blooded animals = conditions: known, background; cited from earlier work
[2] = test system: tobacco cutworm (Spodoptera litura); assay: Test Example 1: mortality of third-instar larvae of tobacco cutworm on cabbage, three days; assay type: in vivo; conditions: 72 h, 3 days; for mortality at 100 ppm: 100 ppm active ingredient; for mortality at 200 ppm: 200 ppm active ingredient; for mortality at 400 ppm: 400 ppm active ingredient
Experimental: Ten third-instar larvae of tobacco cutworm (Spodoptera litura) were placed on a cabbage (one-month-old seedlings) planted in a pot, and a 50% emulsion of the compound to be tested was diluted to a specified concentration and applied to the leaves of the plant to fully wet them. The test compound of each specified concentration was tested on two pots.

noxious insects = conditions: known, background; cited from earlier work
[3] = Test Example 5: acute toxicity by oral administration against male mice; conditions: mouse, in vivo, seventh day, Litchfield-Wilcoxon method
Experimental: The compound to be tested was evaluated in terms of acute toxicity by oral administration against male mice.

[4] = test system: house fly (Musca domestica); assay: Test Example 4: local application to house fly, LD50 by Probit method; assay type: in vivo; conditions: topical, 24 hours
Experimental: The compound to be tested was dissolved in a predetermined amount of acetone. The solution was diluted to various concentrations and locally applied to house fly (Musca domestica).

[5] = test system: southern root-knot nematode (Meloidogyne incognita); assay: Test Example 3: formation of nodules on tomato roots in soil contaminated with nematode larvae, one month; assay type: in vivo
Excerpt: Granules containing 10% of the compound to be tested were mixed, in a specified amount, with soil contaminated with larvae of southern root-knot nematode (Meloidogyne incognita), and tomato seedlings were immediately transplanted in the soil. One month later, the roots of the plant were checked for the formation of nodules. Two test areas, 2×2 m^2 each, were used for the compound as applied in each specified amount.

Compound	mortality at 200 ppm [1] [%]	mortality at 400 ppm [1] [%]	mortality at 800 ppm [1] [%]	toxicity to warm-blooded animals (warm-blooded animals)	mortality at 100 ppm [2] [%]	insecticidal activity (noxious insects)	LD50 at 168 h [3] [mg/kg]	LD50 [4] [mg/kg]	mortality at 200 ppm [2] [%]	mortality at 400 ppm [2] [%]	Degree of Formation of Nodules ([5]; granules (10%) applied at 10 kg/10 a)	Degree of Formation of Nodules ([5]; granules (10%) applied at 25 kg/10 a)	Degree of Formation of Nodules ([5]; granules (10%) applied at 50 kg/10 a)
CNC(=O)ON=C(C)SC [Control*, S-methyl N-[(methylcarbamoyl)oxy]thioacetamidate, reference compound]	90	100	100	high toxicity to warm-blooded animals	80	high insecticidal activity	16	6.8					
CCOC(=O)CCN(SN(C)C(=O)ON=C(C)SC)C(C)C [Example 1, S-methyl N-[{N-methyl-N-(N-isopropyl-N-ethoxycarbonylethylaminosulfenyl)carbamoyl}oxy]thioacetamidate]	60	80	100		85		150	16	90	100			
CCOC(=O)CCN(CCC(=O)OCC)SN(C)C(=O)ON=C(C)SC [Example 2, S-methyl N-[{N-methyl-N-(N,N-bis(ethoxycarbonylethyl)aminosulfenyl)carbamoyl}oxy]thioacetamidate]	60	95	100		75		300	23	100	100			
CCCCN(CC(=O)OCC)SN(C)C(=O)ON=C(C)SC [Example 3]	80	100	100		100		170	8.5	100	100			
CCCN(CCC(=O)OCC)SN(C)C(=O)ON=C(C)SC [Example 4]	95	100	100		100		150	11	100	100			
CCCCN(CCC(=O)OC)SN(C)C(=O)ON=C(C)SC [Example 5]	95	100	100		100		150	5	100	100			
CCOC(=O)CCN(CC(C)C)SN(C)C(=O)ON=C(C)SC [Example 6]	80	90	100		70		170	7.6	95	100			
CCOC(=O)CCN(SN(C)C(=O)ON=C(C)SC)C1CCCCC1 [Example 7]	65	100	100		95		200	18.3	100	100			
CCOC(=O)CCN(Cc1ccccc1)SN(C)C(=O)ON=C(C)SC [Example 8]	75	100	100		100		250	35.2	100	100			
CCOC(=O)CCN(SN(C)C(=O)ON=C(C)SC)c1ccc(Cl)cc1 [Example 9]	70	100	100		50		250	14	70	100			
CCOC(=O)CCN(SN(C)C(=O)ON=C(C)SC)c1cccc(C)c1 [Example 10]	90	100	100		60		250	29.5	85	100			
CCOC(=O)CN(CC(=O)OCC)SN(C)C(=O)ON=C(C)SC [Example 11]	60	80	100		45		300	47.3	75	100			
CCOC(=O)CN(SN(C)C(=O)ON=C(C)SC)C(=O)OCC [Example 12]	80	100	100		100		200	28.7	100	100			
CCOC(=O)CN(SN(C)C(=O)ON=C(C)SC)C(=O)CC [Example 13]	75	100	100		75		200	14.4	90	100			
CCOC(=O)CN(SN(C)C(=O)ON=C(C)SC)S(=O)(=O)c1ccc(C)cc1 [Example 14]	80	100	100		60		250	33.3	80	100			
CCCCOC(=O)CCN(SN(C)C(=O)ON=C(C)SC)C(C)C [Example 15]	80	100	100		75		280	21.3	95	100			
CCCCCCN(CCC(=O)OCC)SN(C)C(=O)ON=C(C)SC [Example 16]	75	100	100		70		300	32.5	80	100			
CCCCC(CC)COC(=O)CCN(SN(C)C(=O)ON=C(C)SC)C(C)C (stereo not drawn) [Example 17]	75	90	100		50		300	42.4	70	100			
CCCCCCCCN(CCC(=O)OCC)SN(C)C(=O)ON=C(C)SC [Example 18]	75	90	100		60		270	35.6	75	100			
CCOC(=O)CCN(SN(C)C(=O)ON=C(C)SC)c1ccc(OC)cc1 [Example 19]	80	100	100		75		250	20.1	80	100			
CCOC(=O)CCN(Cc1ccc(Cl)cc1)SN(C)C(=O)ON=C(C)SC [Example 20]	80	100	100		75		250	18.9	80	100			
Bis(2-chloro-1-methylethyl)ethane											4 (75 to 100%)	4 (75 to 100%)	2 (25 to 49%)
